Data on four molecules can be found in ChEMBL document CHEMBL3390844, “Development of substituted 7-phenyl-4-aminobenzothieno[3,2-d] pyrimidines as potent LIMK1 inhibitors” (Medchemcomm, 2011).

Converted amounts (≈) assume the structure as drawn. A value given as a limit tells only on which side of the number the result lay.

Series [1] addresses T1, LIM domain kinase 1 (Homo sapiens, UniProt P53667). Nature of the series: Inhibition of LIMK1 (unknown origin) assessed as ADP formation using cofilin-2 protein as substrate measured after 60 mins incubation with enzyme by Transcreener assay.
Series [2] can be described thus: Solubility of the compound in phosphate buffer at pH 6.5 by nephelometry. It is filed as physicochemical.
Series [3] is described as follows: Solubility of the compound in 0.01 M HCl at pH 2 by nephelometry. The series is classed as physicochemical.
Series [4] in a line: Partition coefficient, log D of the compound at pH 7.4 by HPLC analysis. It is filed as physicochemical. The following applies: octanol/water.
Series [5] is described as follows: In vitro intrinsic clearance in mouse liver microsomes at 1 uM by LC-MS analysis. As to conditions: read-out: CLH. It is filed as ADME.
The nature of series [6]: In vitro intrinsic clearance in human liver microsomes at 1 uM by LC-MS analysis. It is filed as ADME. The following applies: read-out: CLH.
The nature of series [7]: Plasma protein binding in human by LC-MS analysis. It is filed as ADME, cell-free. The following applies: read-out: PPB (converted).
Series [8] deals with T1, LIM domain kinase 1. Nature of the series: Inhibition of LIMK1-catalyzed cofilin phosphorylation in human ZR-75-1 cells. It is filed as cell-based.
A further series has as its target LIM domain kinase 2 (Homo sapiens, UniProt P53671). Nature of the series: Inhibition of LIMK2 (unknown origin).
In a further series the target is CYP3A4 (Homo sapiens, UniProt P08684). Nature of the series: Inhibition of CYP3A4 in human liver microsomes assessed as reduction in apparent rate of formation of metabolites using midazolam or testosterone as substrate at 20 uM by LC-MS analysis. The series is classed as ADME. The following applies: probe midazolam or testosterone.
Chain of CYP3A4 (P08684 whole entry): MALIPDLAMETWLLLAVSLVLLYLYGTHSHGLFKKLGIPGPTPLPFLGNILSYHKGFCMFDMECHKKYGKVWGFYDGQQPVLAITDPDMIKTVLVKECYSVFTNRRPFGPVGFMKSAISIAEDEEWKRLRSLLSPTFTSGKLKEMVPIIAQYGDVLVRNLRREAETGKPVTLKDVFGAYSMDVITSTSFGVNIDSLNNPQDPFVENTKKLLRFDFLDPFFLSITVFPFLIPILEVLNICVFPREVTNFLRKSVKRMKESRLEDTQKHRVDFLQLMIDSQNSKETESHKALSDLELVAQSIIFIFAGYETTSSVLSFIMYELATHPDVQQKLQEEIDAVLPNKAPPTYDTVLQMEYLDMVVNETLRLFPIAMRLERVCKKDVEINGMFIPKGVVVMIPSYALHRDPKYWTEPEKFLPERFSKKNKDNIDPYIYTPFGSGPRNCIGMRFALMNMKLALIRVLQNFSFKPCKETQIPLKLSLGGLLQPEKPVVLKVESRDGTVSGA
The target of the next series is T2, CYP1A2 (Homo sapiens, UniProt P05177).
T2 sequence (P05177 whole entry): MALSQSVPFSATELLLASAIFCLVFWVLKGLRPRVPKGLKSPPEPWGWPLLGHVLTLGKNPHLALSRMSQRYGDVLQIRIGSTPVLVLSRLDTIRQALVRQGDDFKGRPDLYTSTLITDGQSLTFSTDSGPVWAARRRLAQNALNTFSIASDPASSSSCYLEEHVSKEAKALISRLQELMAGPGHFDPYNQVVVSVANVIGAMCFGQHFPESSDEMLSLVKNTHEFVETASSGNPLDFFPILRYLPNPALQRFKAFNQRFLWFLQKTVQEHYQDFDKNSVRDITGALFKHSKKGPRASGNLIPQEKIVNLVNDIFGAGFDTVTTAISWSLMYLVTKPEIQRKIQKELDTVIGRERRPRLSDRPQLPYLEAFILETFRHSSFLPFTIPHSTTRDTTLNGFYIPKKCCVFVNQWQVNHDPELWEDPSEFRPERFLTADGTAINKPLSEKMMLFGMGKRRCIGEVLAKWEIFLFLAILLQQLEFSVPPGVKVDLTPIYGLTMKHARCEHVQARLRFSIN
In words: Inhibition of CYP1A2 in human liver microsomes assessed as reduction in apparent rate of formation of metabolites using phenacetin as substrate at 20 uM by LC-MS analysis. The series is classed as ADME. As to conditions: probe phenacetin.

The target of a further series is hERG (KCNH2) (Homo sapiens, UniProt Q12809). In words: Inhibition of human ERG at 10 uM by fluorescence polarization assay.
The target in series [9] is Tyrosine-protein kinase JAK1 (Homo sapiens) (UniProt P23458). In words: Inhibition of JAK1 (unknown origin) at 1 uM.
Series [10] addresses Tyrosine-protein kinase JAK2 (Homo sapiens) (UniProt O60674). Nature of the series: Inhibition of JAK2 (unknown origin) at 1 uM.
Series [11] concerns the target T3, Tyrosine-protein kinase JAK3 (Homo sapiens) (UniProt P52333).
T3 sequence (whole entry): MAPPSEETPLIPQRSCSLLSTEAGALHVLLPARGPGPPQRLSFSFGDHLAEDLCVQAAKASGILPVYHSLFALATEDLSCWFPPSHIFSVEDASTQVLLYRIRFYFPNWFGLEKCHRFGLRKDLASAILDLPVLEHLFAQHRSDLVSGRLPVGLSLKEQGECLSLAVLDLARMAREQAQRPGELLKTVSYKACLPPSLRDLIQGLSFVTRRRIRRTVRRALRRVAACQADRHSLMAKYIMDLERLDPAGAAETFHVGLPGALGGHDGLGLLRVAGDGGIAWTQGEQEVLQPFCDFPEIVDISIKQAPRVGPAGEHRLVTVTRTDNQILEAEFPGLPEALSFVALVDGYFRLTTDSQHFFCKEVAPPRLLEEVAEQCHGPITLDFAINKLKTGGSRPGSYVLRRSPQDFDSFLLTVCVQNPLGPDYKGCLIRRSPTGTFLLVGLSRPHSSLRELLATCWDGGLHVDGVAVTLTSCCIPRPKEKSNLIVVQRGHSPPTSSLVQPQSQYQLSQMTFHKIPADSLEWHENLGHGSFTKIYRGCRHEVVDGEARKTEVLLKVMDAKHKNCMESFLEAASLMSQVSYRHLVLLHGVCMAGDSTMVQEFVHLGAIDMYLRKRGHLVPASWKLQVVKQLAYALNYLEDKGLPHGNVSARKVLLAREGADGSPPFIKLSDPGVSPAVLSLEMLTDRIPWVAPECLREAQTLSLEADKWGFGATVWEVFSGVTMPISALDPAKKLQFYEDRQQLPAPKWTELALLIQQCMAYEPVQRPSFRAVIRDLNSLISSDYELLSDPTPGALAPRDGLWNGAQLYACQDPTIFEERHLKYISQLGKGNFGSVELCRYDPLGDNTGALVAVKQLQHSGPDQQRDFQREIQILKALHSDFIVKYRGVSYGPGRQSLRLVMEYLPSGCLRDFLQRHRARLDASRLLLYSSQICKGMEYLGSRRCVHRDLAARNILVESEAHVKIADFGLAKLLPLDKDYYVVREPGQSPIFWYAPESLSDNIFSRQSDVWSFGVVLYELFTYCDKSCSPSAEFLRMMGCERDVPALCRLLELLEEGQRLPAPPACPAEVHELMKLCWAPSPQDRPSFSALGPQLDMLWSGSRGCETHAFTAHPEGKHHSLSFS
Nature of the series: Inhibition of JAK3 (unknown origin) at 1 uM.

In series [12] the target is Tyrosine-protein kinase Lck (Homo sapiens) (UniProt P06239). In words: Inhibition of Lck (unknown origin) at 1 uM.
In series [13] the target is Proto-oncogene tyrosine-protein kinase Src (Homo sapiens) (UniProt P12931). In words: Inhibition of Src (unknown origin) at 1 uM.
Chain of Proto-oncogene tyrosine-protein kinase Src (Homo sapiens) (P12931 2-536 limits assumed): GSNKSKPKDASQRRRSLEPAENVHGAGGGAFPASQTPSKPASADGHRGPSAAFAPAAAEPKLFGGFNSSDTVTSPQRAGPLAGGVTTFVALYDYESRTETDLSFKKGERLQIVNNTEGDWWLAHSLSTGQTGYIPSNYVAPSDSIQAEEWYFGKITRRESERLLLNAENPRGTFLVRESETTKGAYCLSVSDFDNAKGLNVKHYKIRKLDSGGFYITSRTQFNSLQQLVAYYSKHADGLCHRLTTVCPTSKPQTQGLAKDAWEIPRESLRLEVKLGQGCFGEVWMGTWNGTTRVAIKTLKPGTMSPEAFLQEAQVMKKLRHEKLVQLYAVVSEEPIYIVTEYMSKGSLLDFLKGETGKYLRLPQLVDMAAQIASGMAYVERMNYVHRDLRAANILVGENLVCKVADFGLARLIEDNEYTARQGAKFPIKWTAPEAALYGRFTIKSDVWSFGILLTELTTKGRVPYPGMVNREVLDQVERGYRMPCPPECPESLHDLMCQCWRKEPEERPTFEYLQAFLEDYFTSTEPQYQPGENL
Series [14] deals with Serine/threonine-protein kinase PAK 4 (Homo sapiens) (UniProt O96013). Nature of the series: Inhibition of PAK4 (unknown origin) at 1 uM.
In series [15] the target is Serine/threonine-protein kinase PAK 1 (Homo sapiens) (UniProt Q13153). In words: Inhibition of PAK1 (unknown origin) at 1 uM.
Chain of Serine/threonine-protein kinase PAK 1 (Homo sapiens) (Q13153 whole entry): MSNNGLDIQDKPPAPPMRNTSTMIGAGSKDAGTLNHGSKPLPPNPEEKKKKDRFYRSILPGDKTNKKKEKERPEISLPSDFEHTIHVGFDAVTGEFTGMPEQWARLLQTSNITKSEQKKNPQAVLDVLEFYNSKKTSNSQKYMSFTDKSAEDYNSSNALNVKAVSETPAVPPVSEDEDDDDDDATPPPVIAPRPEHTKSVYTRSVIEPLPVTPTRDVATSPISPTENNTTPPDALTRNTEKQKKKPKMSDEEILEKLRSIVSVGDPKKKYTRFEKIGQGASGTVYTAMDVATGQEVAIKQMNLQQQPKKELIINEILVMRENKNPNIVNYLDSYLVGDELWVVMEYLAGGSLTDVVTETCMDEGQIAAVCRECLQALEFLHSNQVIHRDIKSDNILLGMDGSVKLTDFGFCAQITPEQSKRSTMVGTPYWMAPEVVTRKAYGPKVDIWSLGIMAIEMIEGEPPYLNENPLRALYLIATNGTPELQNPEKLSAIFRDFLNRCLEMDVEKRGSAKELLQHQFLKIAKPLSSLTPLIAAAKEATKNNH
Series [16] deals with Rho-associated protein kinase 2 (Homo sapiens) (UniProt O75116). In words: Inhibition of ROCK2 (unknown origin) at 1 uM.
Chain of Rho-associated protein kinase 2 (Homo sapiens) (O75116 whole entry, looked up): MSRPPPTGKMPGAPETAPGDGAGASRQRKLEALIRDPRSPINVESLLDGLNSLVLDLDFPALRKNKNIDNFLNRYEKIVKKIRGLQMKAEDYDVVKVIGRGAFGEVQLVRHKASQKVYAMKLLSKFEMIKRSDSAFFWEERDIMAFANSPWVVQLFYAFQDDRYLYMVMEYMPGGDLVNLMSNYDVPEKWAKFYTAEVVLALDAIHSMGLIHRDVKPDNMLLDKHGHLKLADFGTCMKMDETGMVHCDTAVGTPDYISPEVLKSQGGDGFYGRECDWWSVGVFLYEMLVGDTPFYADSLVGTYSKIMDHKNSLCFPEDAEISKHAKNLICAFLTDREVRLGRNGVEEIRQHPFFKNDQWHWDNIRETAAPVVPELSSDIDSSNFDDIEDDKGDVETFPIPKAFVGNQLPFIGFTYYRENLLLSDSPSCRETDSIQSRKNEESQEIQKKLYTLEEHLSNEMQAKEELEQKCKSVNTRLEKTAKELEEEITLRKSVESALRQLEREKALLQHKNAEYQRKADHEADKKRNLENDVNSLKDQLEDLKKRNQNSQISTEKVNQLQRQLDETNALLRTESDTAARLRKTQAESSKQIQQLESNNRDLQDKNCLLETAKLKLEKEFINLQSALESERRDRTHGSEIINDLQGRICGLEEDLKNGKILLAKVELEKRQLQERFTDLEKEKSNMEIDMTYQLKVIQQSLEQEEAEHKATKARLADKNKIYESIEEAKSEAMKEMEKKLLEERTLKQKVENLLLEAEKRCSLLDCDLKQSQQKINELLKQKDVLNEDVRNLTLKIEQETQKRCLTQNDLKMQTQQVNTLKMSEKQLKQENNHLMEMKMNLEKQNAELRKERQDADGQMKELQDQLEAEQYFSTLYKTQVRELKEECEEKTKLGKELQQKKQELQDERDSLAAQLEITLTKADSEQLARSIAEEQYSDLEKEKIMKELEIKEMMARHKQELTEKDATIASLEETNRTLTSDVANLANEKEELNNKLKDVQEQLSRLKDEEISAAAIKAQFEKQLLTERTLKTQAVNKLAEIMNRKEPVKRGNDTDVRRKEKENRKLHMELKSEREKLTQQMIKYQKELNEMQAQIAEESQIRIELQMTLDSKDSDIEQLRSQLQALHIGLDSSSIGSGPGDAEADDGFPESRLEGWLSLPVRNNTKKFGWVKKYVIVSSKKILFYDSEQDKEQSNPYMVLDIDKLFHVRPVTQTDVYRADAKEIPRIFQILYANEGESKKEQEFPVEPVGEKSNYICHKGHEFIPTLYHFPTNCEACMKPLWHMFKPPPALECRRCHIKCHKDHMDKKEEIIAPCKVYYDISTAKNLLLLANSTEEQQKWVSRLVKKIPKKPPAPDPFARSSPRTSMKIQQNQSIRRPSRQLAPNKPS
A further series relates to CYP2D6 (Homo sapiens). In words: Inhibition of CYP2D6 in human liver microsomes assessed as reduction in apparent rate of formation of metabolites using dextromethorphan as substrate at 20 uM by LC-MS analysis. As to conditions: probe dextromethorphan.

T1 sequence (P53667 whole entry, the tested form may be a part): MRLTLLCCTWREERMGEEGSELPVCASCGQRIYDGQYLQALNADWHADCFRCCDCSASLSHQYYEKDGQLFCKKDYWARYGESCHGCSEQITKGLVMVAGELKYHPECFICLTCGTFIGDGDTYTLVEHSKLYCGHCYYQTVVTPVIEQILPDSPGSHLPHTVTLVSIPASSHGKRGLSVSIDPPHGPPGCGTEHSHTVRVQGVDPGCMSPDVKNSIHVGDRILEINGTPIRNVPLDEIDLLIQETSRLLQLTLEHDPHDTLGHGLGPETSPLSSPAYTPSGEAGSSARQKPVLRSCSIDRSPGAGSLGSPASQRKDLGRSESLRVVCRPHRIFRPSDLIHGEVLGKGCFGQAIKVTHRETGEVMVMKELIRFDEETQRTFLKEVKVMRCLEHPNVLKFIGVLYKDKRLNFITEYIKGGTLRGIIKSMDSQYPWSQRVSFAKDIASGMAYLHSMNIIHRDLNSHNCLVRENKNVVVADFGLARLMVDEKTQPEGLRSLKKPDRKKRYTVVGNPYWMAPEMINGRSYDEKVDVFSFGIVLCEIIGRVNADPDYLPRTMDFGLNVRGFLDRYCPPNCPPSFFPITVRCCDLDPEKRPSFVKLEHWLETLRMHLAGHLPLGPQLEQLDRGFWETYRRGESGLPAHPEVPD
Chain of Tyrosine-protein kinase JAK2 (Homo sapiens) (O60674 whole entry): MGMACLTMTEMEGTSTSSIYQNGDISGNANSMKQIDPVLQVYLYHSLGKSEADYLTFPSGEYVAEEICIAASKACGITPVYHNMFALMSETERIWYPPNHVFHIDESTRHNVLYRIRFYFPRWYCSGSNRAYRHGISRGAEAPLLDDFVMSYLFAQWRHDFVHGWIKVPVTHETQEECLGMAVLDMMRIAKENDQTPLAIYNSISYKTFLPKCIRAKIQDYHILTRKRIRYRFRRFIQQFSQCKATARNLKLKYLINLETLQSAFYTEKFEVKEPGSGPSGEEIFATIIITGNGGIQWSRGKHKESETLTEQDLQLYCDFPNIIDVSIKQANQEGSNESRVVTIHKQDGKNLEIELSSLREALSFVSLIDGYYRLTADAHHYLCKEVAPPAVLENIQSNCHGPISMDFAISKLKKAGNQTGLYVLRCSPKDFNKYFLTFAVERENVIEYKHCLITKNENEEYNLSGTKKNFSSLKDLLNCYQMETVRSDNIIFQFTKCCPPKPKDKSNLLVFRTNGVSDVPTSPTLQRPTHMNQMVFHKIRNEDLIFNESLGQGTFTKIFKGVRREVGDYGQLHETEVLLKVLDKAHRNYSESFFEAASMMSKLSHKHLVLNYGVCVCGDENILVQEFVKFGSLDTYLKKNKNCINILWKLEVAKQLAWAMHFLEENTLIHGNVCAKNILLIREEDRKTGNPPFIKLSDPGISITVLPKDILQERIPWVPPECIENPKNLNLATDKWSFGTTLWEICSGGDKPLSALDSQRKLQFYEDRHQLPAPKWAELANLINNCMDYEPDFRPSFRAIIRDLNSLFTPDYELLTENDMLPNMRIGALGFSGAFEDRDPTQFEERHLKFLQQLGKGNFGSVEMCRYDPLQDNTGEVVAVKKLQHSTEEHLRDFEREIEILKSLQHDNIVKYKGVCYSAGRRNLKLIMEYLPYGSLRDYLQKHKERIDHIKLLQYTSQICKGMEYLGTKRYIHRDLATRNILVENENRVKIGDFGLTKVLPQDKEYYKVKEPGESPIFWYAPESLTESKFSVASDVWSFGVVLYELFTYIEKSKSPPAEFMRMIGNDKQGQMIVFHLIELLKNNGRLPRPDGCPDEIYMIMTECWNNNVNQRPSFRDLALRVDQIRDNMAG

Regarding `CN1CCN(C(=O)Nc2cccc(-c3ccc4c(c3)sc3c(N)ncnc34)c2)CC1`, the figures for the IC50 on LIM domain kinase 1 [1], at LIM domain kinase 1 [8] and at LIM domain kinase 2 were 95 nM, 1600 nM and 157 nM, respectively. In addition, the solubility (kinetic) in series [2] is 12.5 µg/mL (≈ 29.9 µM); in [3], above 100 µg/mL. Also, the log distribution coefficient (logD) in series [4] was found to be 2.5. Also, the microsomal CLint at 1 µM is 27 µL/min/mg in series [5] and 165 µL/min/mg in series [6]. In series [7], the fraction unbound was 0.037. Further, the inhibition at 20 µM on CYP3A4 was found to be 82%; on CYP1A2, 11%; in the series on CYP2D6 (Homo sapiens), 12%. Further, the inhibition at 10 µM at hERG (KCNH2) amounted to 27%. Moreover, the inhibition in series [9] came to 25%; in series [10], 88%; in series [11], 53%; in [12], 75%; in [13] it was 71%; in series [14], 0%. In addition, the inhibition is 33% in [15] and 24% in series [16].
For the molecule `Nc1ncnc2c1sc1cc(-c3cccc(NC(=O)N4CCCC4)c3)ccc12`, the figures for the IC50 at LIM domain kinase 1 [1], at LIM domain kinase 1 [8] and against LIM domain kinase 2 were 95 nM, 2400 nM and 103 nM, respectively. Moreover, the values for the kinetic solubility in series [2] and in series [3] were 3.1 µg/mL (≈ 7.96 µM) and 50 µg/mL (≈ 128 µM), respectively. In [4], the logD is 2.8. The figures for the microsomal CLint at 1 µM in [5] and in series [6] were 56 µL/min/mg and 77 µL/min/mg, respectively. Also, the figures for the inhibition at 20 µM on CYP3A4, at CYP1A2 and in the series with CYP2D6 (Homo sapiens) were 82%, 28% and 9%, respectively. Moreover, at 10 µM the inhibition against hERG (KCNH2) was 0%. Besides, the inhibition in [9] was 13%; in series [10] it was 95%; in series [11], 56%; in [12], 71%; in [13] it was 60%; in series [14] it was 7%. The values for the inhibition in [15] and in series [16] were 0% and 10%, respectively.
For `Nc1ncnc2c1sc1cc(-c3cccc(C(=O)NCCc4cccnc4)c3)ccc12`, the IC50 is 97 nM at LIM domain kinase 1 [1], 4100 nM against LIM domain kinase 1 [8] and 133 nM against LIM domain kinase 2. The kinetic solubility in series [2] is below 1.6 µg/mL; in [3] it was 50 µg/mL (≈ 118 µM). Moreover, the logD in series [4] is 2.7. Also, the microsomal CLint at 1 µM in [5] is 111 µL/min/mg; in series [6] it was 116 µL/min/mg. For the same molecule, in series [7], the fraction unbound was 0.014. Further, the inhibition at 20 µM at CYP3A4 was found to be 99%; on CYP1A2, 13%; in the series with CYP2D6 (Homo sapiens), 74%. This molecule also returned an inhibition at 10 µM on hERG (KCNH2) of 11%. Further, the inhibition in [9] was 31%; in series [10], 98%; in series [11], 60%; in [12], 85%; in series [13] it was 23%; in series [14], 13%. In addition, the results for the inhibition in series [15] and in [16] were 8% and 13%, respectively.
As to `Nc1ncnc2c1sc1cc(-c3cccc(C(=O)NCC(=O)N4CCOCC4)c3)ccc12`, the figures for the IC50 on LIM domain kinase 1 [1] and at LIM domain kinase 1 [8] were 81 nM and 1400 nM, respectively. Further, the solubility (kinetic) was found to be 6.3 µg/mL (≈ 14.1 µM) in series [2] and 50 µg/mL (≈ 112 µM) in series [3]. In series [4], this molecule registered a logD of 2.1. Besides, the microsomal CLint at 1 µM in series [5] is below 6 µL/min/mg; in [6], 68 µL/min/mg. In [7], the fraction unbound is 0.053. In addition, the results for the inhibition at 20 µM on CYP3A4 and on CYP1A2 were 70% and 17%, respectively. For the same molecule, testing at 10 µM on hERG (KCNH2) gave an inhibition of 0%. In addition, the inhibition was 31% in [9]; 97% in series [10]; 65% in series [11]; 97% in series [12]; 45% in series [13]; 0% in series [14]. The values for the inhibition in series [15] and in series [16] were 23% and 18%, respectively.
